The source of these data is patent US20120053197A1, “TRICYCLIC PYRIDINE DERIVATIVES, MEDICAMENTS CONTAINING SUCH COMPOUNDS, THEIR USE AND PROCESS FOR THEIR PREPARATION” (BOEHRINGER INGELHEIM INTERNATIONAL GMBH, priority 2010, published 2012).

This assay has as its target T1, recombinant human CETP (Homo sapiens, UniProt P11597).
T1 construct: made in house; host or cells: CHO cells (protein secreted into conditioned medium)
T1 sequence (P11597 18-493): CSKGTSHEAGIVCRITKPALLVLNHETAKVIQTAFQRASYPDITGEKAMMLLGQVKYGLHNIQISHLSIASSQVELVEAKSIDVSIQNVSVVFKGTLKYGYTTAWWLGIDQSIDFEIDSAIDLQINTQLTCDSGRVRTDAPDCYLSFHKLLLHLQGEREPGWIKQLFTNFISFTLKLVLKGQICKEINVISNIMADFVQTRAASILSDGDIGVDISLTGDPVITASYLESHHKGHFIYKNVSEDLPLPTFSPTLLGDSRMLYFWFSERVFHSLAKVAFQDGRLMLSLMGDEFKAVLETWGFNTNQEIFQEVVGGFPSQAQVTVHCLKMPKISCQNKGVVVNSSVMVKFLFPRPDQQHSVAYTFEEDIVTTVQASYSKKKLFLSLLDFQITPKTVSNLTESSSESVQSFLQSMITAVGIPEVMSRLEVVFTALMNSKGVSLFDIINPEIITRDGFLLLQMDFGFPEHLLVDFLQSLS
As to the kind of experiment: CETP in vitro fluorometric assay (Roar Biomedical), cholesterol ester transfer from HDL to LDL. The note with it: recombinant human CETP from CHO cells; 3 hours at 37° C.; fluorescence ex 485 nm / em 535 nm; compound concentrations between 1 nM and 30 μM; read-out: IC50 values for inhibition of CETP. It counts as biochemical. Here is the method: CETP inhibitory activity of compounds of the present invention can be determined in a fluorometric assay puchased from Roar Biomedical, Inc. (New York, N.Y., USA). […] Recombinant human CETP was partially purified from medium conditioned by CETP expressing CHO cells. In a 384 well format 2.5 μl of compound solution in DMSO was combined with 2 μl of donor solution, 2 μl of acceptor solution and 0.8 μl of recombinant human CETP solution in a total volume of 100 μl with assay buffer and incubated for 3 hours at 37° C. The fluorescence intensity was measured at excitation wavelength of 485 nm and emission wavelength of 535 nm. IC50 values are calculated from dose effect curves from compound concentrations between 1 nM and 30 μM.
On to `CC1(C)Cc2nc(C3CCOCC3)c3c(c2[C@@H](O)C1)C1(CCCC1)O[C@@H]3c1ccc(C(C)(C)C)cc1` [1(36), (3′R,9′S)-3′-(4-tert-butylphenyl)-7′,7′-dimethyl-4′-(tetrahydro-2H-pyran-4-yl)-6′,7′,8′,9′-tetrahydro-3′H-spiro[cyclopentane-1,1′-furo[3,4-c]quinolin]-9′-ol], for which the IC50 (commonly the concentration at which inhibition is half-maximal) was determined as 74 nM.

For `CCc1nc2c(c3c1[C@@H](c1ccc(C(F)(F)F)cc1)OC31CCCC1)[C@@H](O)CC(C)(C)C2` [1(37), (3′R,9′S)-4′-ethyl-7′,7′-dimethyl-3′-(4-(trifluoromethyl)phenyl)-6′,7′,8′,9′-tetrahydro-3′H-spiro[cyclopentane-1,1′-furo[3,4-c]quinolin]-9′-ol], the IC50 stood at 418 nM.

`CC(C)c1nc2c(c3c1[C@@H](c1cc(F)cc(F)c1)OC31CCCC1)[C@@H](O)CC(C)(C)C2` [1(38), (3′R,9′S)-3′-(3,5-difluorophenyl)-4′-isopropyl-7′,7′-dimethyl-6′,7′,8′,9′-tetrahydro-3′H-spiro[cyclopentane-1,1′-furo[3,4-c]quinolin]-9′-ol]: the IC50 amounted to 3320 nM.

As for `CC1(C)Cc2nc(C3CCOCC3)c3c(c2[C@@H](O)C1)C1(CCOCC1)O[C@@H]3c1ccc(C(F)(F)F)cc1` [1(39), (3R,9S)-7,7-dimethyl-4-(tetrahydro-2H-pyran-4-yl)-3-(4-(trifluoromethyl)phenyl)-2′,3′,5′,6,6′,7,8,9-octahydro-3H-spiro[furo[3,4-c]quinoline-1,4′-pyran]-9-ol], the concentration for half-maximal inhibition (IC50) was found to be 56 nM.

Consider `CC(C)c1nc2c(c3c1[C@@H](c1ccc(C4(C)CC4)cc1)OC31CCCC1)[C@@H](O)CC(C)(C)C2` [1(40), (3′R,9′S)-4′-isopropyl-7′,7′-dimethyl-3′-(4-(1-methylcyclopropyl)phenyl)-6′,7′,8′,9′-tetrahydro-3′H-spiro[cyclopentane-1,1′-furo[3,4-c]quinolin]-9′-ol], for which the IC50 is 37 nM.

Regarding `CC(C)c1nc2c(c3c1[C@@H](c1cccc(C(F)(F)F)c1)OC31CCCC1)[C@@H](O)CC(C)(C)C2` [1(41), (3′R,9′S)-4′-isopropyl-7′,7′-dimethyl-3′-(3-(trifluoromethyl)phenyl)-6′,7′,8′,9′-tetrahydro-3′H-spiro[cyclopentane-1,1′-furo[3,4-c]quinolin]-9′-ol], the IC50 came out at 524 nM.

For `CC(C)c1nc2c(c3c1[C@@H](c1ccc(C(C)(C)C)cc1)OC31CCOCC1)[C@@H](O)CC(C)(C)C2` [1(42), (3R,9S)-3-(4-tert-butylphenyl)-4-isopropyl-7,7-dimethyl-2′,3′,5′,6,6′,7,8,9-octahydro-3H-spiro[furo[3,4-c]quinoline-1,4′-pyran]-9-ol], the IC50 worked out at 25 nM.

For the compound `CC1(C)Cc2nc(C3CCOCC3)c3c(c2[C@@H](O)C1)C1(CCCC1)O[C@@H]3c1ccc(S(F)(F)(F)(F)F)cc1` [1(43), (3′R,9′S)-7′,7′-dimethyl-4′-(tetrahydro-2H-pyran-4-yl)-3′-(4-(pentafluorosulfanyl)phenyl)-6′,7′,8′,9′-tetrahydro-3′H-spiro[cyclopentane-1,1′-furo[3,4-c]quinolin]-9′-ol], the IC50 was found to be 22 nM.

Consider `CC(C)c1nc2c(c3c1[C@@H](c1ccc(C4(C#N)CC4)cc1)OC31CCCC1)[C@@H](O)CC(C)(C)C2` [1(44), 1-(4-((3′R,9′S)-9′-hydroxy-4′-isopropyl-7′,7′-dimethyl-6′,7′,8′,9′-tetrahydro-3′H-spiro[cyclopentane-1,1′-furo[3,4-c]quinoline]-3′-yl)phenyl)cyclopropanecarbonitrile], for which the IC50 was 69 nM.

For the compound `CC(C)c1nc2c(c3c1[C@@H](c1ccc(C4CC4)cc1)OC31CCCC1)[C@@H](O)CC(C)(C)C2` [1(45), (3′R,9′S)-3′-(4-cyclopropylphenyl)-4′-isopropyl-7′,7′-dimethyl-6′,7′,8′,9′-tetrahydro-3′H-spiro[cyclopentane-1,1′-furo[3,4-c]quinolin]-9′-ol], the IC50 worked out at 122 nM.

On to `CC(C)c1nc2c(c3c1[C@@H](c1ccc(C(F)(F)F)cc1)OC31CCCC1)[C@@H](O)CC(C)(C)[C@@H]2O` [3(1), (3′R,6′S,9′S)-4′-isopropyl-7′,7′-dimethyl-3′-(4-(trifluoromethyl)phenyl)-6′,7′,8′,9′-tetrahydro-3′H-spiro[cyclopentane-1,1′-furo[3,4-c]quinoline]-6′,9′-diol], for which the IC50 was determined as 394 nM.

For the compound `CC(C)c1nc2c(c3c1[C@@H](c1ccc(C(F)(F)F)cc1)OC31CCCC1)[C@@H](O)CC(C)(C)C2` [Example 1, (3′R,9′S)-4′-isopropyl-7′,7′-dimethyl-3′-(4-(trifluoromethyl)phenyl)-6′,7′,8′,9′-tetrahydro-3′H-spiro[cyclopentane-1,1′-furo[3,4-c]quinolin]-9′-ol], the half-maximal inhibitory concentration (IC50) is 54 nM.

Consider `CC(C)c1nc2c(c3c1[C@@H](c1ccc(C(F)(F)F)cc1)OC31CCCC1)[C@@H](O)CC(C)(C)[C@H]2O` [Example 3, (3′R,6′R,9′S)-4′-isopropyl-7′,7′-dimethyl-3′-(4-(trifluoromethyl)phenyl)-6′,7′,8′,9′-tetrahydro-3′H-spiro[cyclopentane-1,1′-furo[3,4-c]quinoline]-6′,9′-diol], for which the IC50 was found to be 20 nM.

Turning to `CC(C)(C)c1ccc([C@H]2OC3(CCCC3)c3c2c(C2CCOCC2)nc2c3[C@@H](O)CC(C)(C)[C@H]2O)cc1` [Example 4, (3′R,6′R,9′S)-3′-(4-tert-butylphenyl)-7′,7′-dimethyl-4′-(tetrahydro-2H-pyran-4-yl)-6′,7′,8′,9′-tetrahydro-3′H-spiro[cyclopentane-1,1′-furo[3,4-c]quinoline]-6′,9′-diol], the IC50 turned out to be 62 nM.
